Measurements: patent US6492329B1, “Cytokine and hemopoietic factor endogenous production enhancer and methods of use thereof” (Novelos Therapeutics, Inc., priority 1995, dated 2002)

Experiments:
[1] = system: e-ras cell line (REF transformed with E1A and ras-oncogene); test: Number of clones of e-ras cells throughout 72-hr incubation; type: cell-based, rat
Method: (§1) To this end, these substances had been incubated for 72 hours with cells of rat embrional fibroblasts (REF) and the same cells, transformed with adenoviral E1A gene in complementation with ras-oncogene (e-ras cell line). Subsequent evaluation of the cellularity of experimental samples was carried out by counting the quantity of cell per milliliter (for REF cell line) or clones in dish (for e-ras cell line).
(§2) Cells were cultivated on DMEM medium supplemented with 10% fetal calf serum and […] gentamicin. Cultivation was carried out in Petri dishes.
(§3) E-ras cells were seeded at a cell density of 300 cells per 5 cm dish. 7 days after growth of e-ras cells had been started the quantity of clones was evaluated and the test articles were added into the dishes.
(§4) For the test-system for estimation of apoptosis regulation UV-induced cell death was triggered in a dose of 4 Dj. Test articles were added immediately after irradiation. Then, the quantity of cell per milliliter (for REF cell line) or clones in dish (for e-ras cell line) were monitored every 24 hours. For determination of DNA-fragmentation the electrophoresis in agarose gel was used at standard settings.

leukemia P388 cells [2] = test: Leukemia P388 in mice: serum cytokines, ascitic fluid, survival (Example 5); conditions: for Accumulation of ascitic fluid (weight gain) / Concentration in serum: IFNα / Concentration in serum: IL-1 / Concentration in serum: IL-2 / Concentration in serum: IL-6 / Concentration in serum: TNFα: P388 mice
Method: (§6) An influence of 7 day course of test article daily administration was studied in respect of variations of serum cytokine levels (IL-1, IL-2, IL-6, IFNα, TNF). In parallel, the tumor progression was estimated using the two integral indices: pace of mouse weight gain due to accumulation of ascitic fluid, and by animal mean survival time after inoculation.
(§7) The study was carried out on DBA/2 mice weighing 18-21 g. First, tumor cell passage was performed using 6 animals for each cell line. For this, cells kept at the temperature of the liquid nitrogen were de-frozen and adjusted to the concentration of 5×10^6 cells/mL by sterile Hanks' solution. Then, 6 mice were intraperitoneally inoculated with 0.2 mL of each line cellular suspension.
(§8) Ascitic fluid was collected 6 days after the inoculation with L1210 cells and 8 days after the inoculation with P388 ones. Thus obtained, the samples of passaged tumor cells were used for the main experiments. The fluid liquid was dissolved by sterile Hanks' solution so that cell concentration be 5×10^6 cells/mL for P388 cells and 5×10^5 cells/mL for L1210 cells.
(§9) Nine groups of animals with no less than 15 mice each were formed for experiments with either tumor cell line. Mice were inoculated with 0.2 mL of resultant cell suspensions per mouse (10^6 P388 cells/mouse, and 10^5 L1210 cells/mouse). 24 hours after the tumor cells inoculation. animals were given the first injections of the test articles or vehicles. The test article injections were made daily till the 14th day of the experiment or until the animal's death. The volume of solutions injected comprised 0.01 mL/g body weight.
(§10) #1—intact animals receiving imitation of tumor cell inoculation (injection of normal saline) which further were treated with normal saline throughout the entire experiment;
(§11) #2—control animals, inoculated with tumor cells, which further were treated with test article vehicle (normal saline);

normal human lymphocytes = test: Proliferation/apoptosis of normal human lymphocytes (cell number per well, flow cytofluorometry); type: cell-based
leukemia L1210 cells [3] = test: Leukemia L1210 in mice: ascitic fluid and survival (Example 14); conditions: for Accumulation of ascitic (weight gain, %): leukemia L1210
[4] = system: rat embrional fibroblasts (REF); test: Number of REF cells throughout 72-hr incubation; type: cell-based
Method: as §1, §2
(§5) REF cells was cultivated with initial density of 800 000 cell per mL, evaluation of the cellularity was performed at 0, 24, 48 and 72 hours of incubation with the test articles.
as §4

leukemia P388 cells [5] = test: Leukemia P388 in mice: ascitic fluid and survival (Example 14); conditions: for Accumulation of ascitic (weight gain, %): leukemia P388
Method: (§12) An influence of 7 day course of test article daily administration was studied in respect of tumor progression, which was estimated using the two integral indices: pace of mouse weight gain due to accumulation of ascitic fluid, and by animal mean survival time after inoculation.
(§13) The study was carried out on DBA/2 mice weighing 18-21 g. First, tumor cell passage was performed using 6 animals for each cell line. For this, cells kept at the temperature of the liquid nitrogen were de-frozen and adjusted to the concentration of 5×10^6 cells/mL by sterile Hanks' solution. Then, 6 mice were intra peritoneally inoculated with 0.2 mL of each line cellular suspension.
(§14) Ascitic fluid was collected 6 days after the inoculation with L1210 cells, 8 days after the inoculation with P388 ones and 18 days after inoculation with Erlich adenocarcinoma cells. Thus obtained, the samples of passaged tumor cells were used for the main experiments. The fluid liquid was dissolved by sterile Hanks' solution so that cell concentration be 5×10^6 cells/mL for P388 cells and Erlich adenocarcinoma cells, 5×10^5 cells/mL for L1210 cells.
(§15) Eleven groups of animals with no less than 15 mice each were formed for experiments with either tumor cell line. Mice were inoculated with 0.2 mL of resultant cell suspensions per mouse (10^6 P388 and Erlich adenocarcinoma cells/mouse, and 10^5 L1210 cells/mouse). 24 hours after the tumor cells inoculation, animals were given the first injections of the test articles or vehicles. The test article injections were made daily till the 14th day of the experiment or till the animal death. The volume of solutions injected comprised 0.01 mL/g body weight.
as §10, §11

HL-60 cells = test: Proliferation/apoptosis of HL-60 tumor cells (cell number per well, flow cytofluorometry)
Method: Subsequent evaluation of the cell cycle parameters was carried out by the flow cytofluorometry technique.
A mononuclear fraction of blood leukocytes were obtained by centrifugation in gradient of fikoll-metrizoat (Histopaque, Sigma). […] Cell viability was estimated by the Trypan blue exclusion method, then the cell suspension was placed into wells of 96-well microtiter plates—200,000 cells per well. […] Cultivation was carried out in closed flasks, the medium volume was 12 mL, it was changed every four days by centrifugation. The nature of the cells growth was suspensive. […] 50 μL of each test solution were added to one or the other cell culture and thereafter cells were cultivated for 24-96 hours. Then, they were tested by the flow cytofluorometry to estimate DNA content in the cell nuclei. In case of apoptosis-like cellular death, the portion of cell nuclei with normal content of DNA became reduced, while the portion of cell nuclei containing abnormally small DNA quantity became larger.
The analysis procedure was the following: after incubation completion, cells were centrifuged and transferred to a standard phosphate isotonic buffer pH 7.4, containing RNA-ase A (20 μg/mL), ethidium bromide (fluorometric indicator for double stranded nucleic acid. 10 μg/mL) and MgCl2 (5 mM). After the cells were disintegrated by nonionic detergent Triton X-100 (final concentration 0.1%). The suspension of cell nuclei thus obtained was analyzed by flow cytofluorometry with an argon laser as a source of light (wave length 488 nm). The red fluorescence due to DNA bound ethidium bromide was taken to be the measure of DNA content in the cell nuclei.

leukemia L1210 cells [6] = test: Leukemia L1210 in mice: serum cytokines, ascitic fluid, survival (Example 5); conditions: for Accumulation of ascitic fluid (weight gain) / Concentration in serum: IFNα / Concentration in serum: IL-1 / Concentration in serum: IL-2 / Concentration in serum: IL-6 / Concentration in serum: TNFα: L1210 mice
Method: as §6, §7, §8, §9, §10, §11

[7] = system: e-ras cells after UV-irradiation; test: Number of clones of e-ras cells after UV-irradiation; type: cell-based, rat
Method: as §1, §2, §3, §4

[8] = system: Erlich adenocarcinoma cells; test: Erlich adenocarcinoma in mice: ascitic fluid and survival (Example 14); conditions: for Accumulation of ascitic (weight gain, %): Erlich adenocarcinoma
Method: as §12, §13, §14, §15, §10, §11

[9] = system: rat embrional fibroblasts (REF) after UV-irradiation; test: Number of REF cells after UV-irradiation; type: cell-based
Method: as §1, §2, §5, §4

OO [0.003% H2O2, hydrogen peroxide]
number of clones of e-ras cells (M ± m) ([1]; 0 hours of incubation): 288 ± 4
number of clones of e-ras cells (M ± m) ([1]; 24 hours of incubation): 286 ± 4
number of clones of e-ras cells (M ± m) ([1]; 48 hours of incubation): 264 ± 3
number of clones of e-ras cells (M ± m) ([1]; 72 hours of incubation): 234 ± 6
Accumulation of ascitic fluid (weight gain) (leukemia P388 cells [2]; 0 injections): 0.63 ± 0.15%
Concentration in serum: IFNα (leukemia P388 cells [2]; 0 injections): 129. ± 10.0 pg/mL
Concentration in serum: IL-1 (leukemia P388 cells [2]; 0 injections): 15.5 ± 2.04 pg/mL
Concentration in serum: IL-2 (leukemia P388 cells [2]; 0 injections): 14.95 ± 2.16 pg/mL
Concentration in serum: IL-6 (leukemia P388 cells [2]; 0 injections): 134.0 ± 15.6 pg/mL
Concentration in serum: TNFα (leukemia P388 cells [2]; 0 injections): 119. ± 9.13 pg/mL
Accumulation of ascitic fluid (weight gain) (leukemia P388 cells [2]; 3 daily injections): 5.4 ± 0.62%
Concentration in serum: IFNα (leukemia P388 cells [2]; 3 daily injections): 205.8 ± 18.3 pg/mL
Concentration in serum: IL-1 (leukemia P388 cells [2]; 3 daily injections): 44.7 ± 6.14 pg/mL
Concentration in serum: IL-2 (leukemia P388 cells [2]; 3 daily injections): 22.0 ± 2.81 pg/mL
Concentration in serum: IL-6 (leukemia P388 cells [2]; 3 daily injections): 156.0 ± 16.3 pg/mL
Concentration in serum: TNFα (leukemia P388 cells [2]; 3 daily injections): 144.5 ± 12.8 pg/mL
Accumulation of ascitic fluid (weight gain) (leukemia P388 cells [2]; 7 daily injections): 20.3 ± 2.28%
Concentration in serum: IFNα (leukemia P388 cells [2]; 7 daily injections): 190. ± 16.7 pg/mL
Concentration in serum: IL-1 (leukemia P388 cells [2]; 7 daily injections): 28.6 ± 4.11 pg/mL
Concentration in serum: IL-2 (leukemia P388 cells [2]; 7 daily injections): 40.8 ± 5.12 pg/mL
Concentration in serum: IL-6 (leukemia P388 cells [2]; 7 daily injections): 110.9 ± 12.5 pg/mL
Concentration in serum: TNFα (leukemia P388 cells [2]; 7 daily injections): 248. ± 20.7 pg/mL
Mean survival time (leukemia P388 cells [2]; mice inoculated with leukemia P388 cells, daily injections till day 14 or death): 9.9 ± 0.24
number of normal lymphocytes per well (normal human lymphocytes; 24 hours incubation): 28 ± 2 × 10^4 cells
number of normal lymphocytes per well (normal human lymphocytes; 48 hours incubation): 73 ± 5 × 10^4 cells
number of normal lymphocytes per well (normal human lymphocytes; 72 hours incubation): 123 ± 8 × 10^4 cells
number of normal lymphocytes per well (normal human lymphocytes; 96 hours incubation): 206 ± 8 × 10^4 cells
Accumulation of ascitic (weight gain, %) (leukemia L1210 cells [3]; number of injection 0): 0.77 ± 0.2%
Accumulation of ascitic (weight gain, %) (leukemia L1210 cells [3]; number of injection 3): 6.1 ± 0.4%
Accumulation of ascitic (weight gain, %) (leukemia L1210 cells [3]; number of injection 7): 19.2 ± 2.2%
Mean survival time (leukemia L1210 cells [3]; mice inoculated with leukemia L1210 cells): 9.2 ± 0.8
number of REF cells (M ± m) ([4]; 0 hours of incubation): 822 ± 11 × 10^3 cells
number of REF cells (M ± m) ([4]; 24 hours of incubation): 1365 ± 14 × 10^3 cells
number of REF cells (M ± m) ([4]; 48 hours of incubation): 2598 ± 63 × 10^3 cells
number of REF cells (M ± m) ([4]; 72 hours of incubation): 5059 ± 34 × 10^3 cells
Accumulation of ascitic (weight gain, %) (leukemia P388 cells [5]; number of injection 0): 0.7 ± 0.2%
Accumulation of ascitic (weight gain, %) (leukemia P388 cells [5]; number of injection 3): 4.1 ± 0.4%
Accumulation of ascitic (weight gain, %) (leukemia P388 cells [5]; number of injection 7): 19.0 ± 2.1%
Mean survival time (leukemia P388 cells [5]; mice inoculated with leukemia P388 cells): 21.2 ± 0.8
number of HL-60 cells per well (HL-60 cells; 24 hours incubation): 122 ± 6 × 10^4 cells
number of HL-60 cells per well (HL-60 cells; 48 hours incubation): 186 ± 12 × 10^4 cells
number of HL-60 cells per well (HL-60 cells; 72 hours incubation): 488 ± 24 × 10^4 cells
number of HL-60 cells per well (HL-60 cells; 96 hours incubation): 712 ± 22 × 10^4 cells
Accumulation of ascitic fluid (weight gain) (leukemia L1210 cells [6]; 0 injections): 0.79%
Concentration in serum: IFNα (leukemia L1210 cells [6]; 0 injections): 133.7 pg/mL
Concentration in serum: IL-1 (leukemia L1210 cells [6]; 0 injections): 17.07 pg/mL
Concentration in serum: IL-2 (leukemia L1210 cells [6]; 0 injections): 16.18 pg/mL
Concentration in serum: IL-6 (leukemia L1210 cells [6]; 0 injections): 120.9 pg/mL
Concentration in serum: TNFα (leukemia L1210 cells [6]; 0 injections): 110. pg/mL
Accumulation of ascitic fluid (weight gain) (leukemia L1210 cells [6]; 3 daily injections): 6.12%
Concentration in serum: IFNα (leukemia L1210 cells [6]; 3 daily injections): 189. pg/mL
Concentration in serum: IL-1 (leukemia L1210 cells [6]; 3 daily injections): 38.15 pg/mL
Concentration in serum: IL-2 (leukemia L1210 cells [6]; 3 daily injections): 23.5 pg/mL
Concentration in serum: IL-6 (leukemia L1210 cells [6]; 3 daily injections): 140. pg/mL
Concentration in serum: TNFα (leukemia L1210 cells [6]; 3 daily injections): 158.0 pg/mL
Accumulation of ascitic fluid (weight gain) (leukemia L1210 cells [6]; 7 daily injections): 21.61%
Concentration in serum: IFNα (leukemia L1210 cells [6]; 7 daily injections): 209. pg/mL
Concentration in serum: IL-1 (leukemia L1210 cells [6]; 7 daily injections): 23.6 pg/mL
Concentration in serum: IL-2 (leukemia L1210 cells [6]; 7 daily injections): 45.5 pg/mL
Concentration in serum: IL-6 (leukemia L1210 cells [6]; 7 daily injections): 103. pg/mL
Concentration in serum: TNFα (leukemia L1210 cells [6]; 7 daily injections): 220.0 ± pg/mL
Mean survival time (leukemia L1210 cells [6]; mice inoculated with leukemia L1210 cells, daily injections till day 14 or death): 9.7 ± 0.21
number of clones of e-ras cells after UV-irradiation (M ± m) ([7]; 0 hours): 288 ± 4
number of clones of e-ras cells after UV-irradiation (M ± m) ([7]; 24 hours): 186 ± 4
number of clones of e-ras cells after UV-irradiation (M ± m) ([7]; 48 hours): 124 ± 3
number of clones of e-ras cells after UV-irradiation (M ± m) ([7]; 72 hours): 84 ± 6
Accumulation of ascitic (weight gain, %) ([8]; number of injection 0): 0.9 ± 0.2%
Accumulation of ascitic (weight gain, %) ([8]; number of injection 3): 14.1 ± 0.6%
Accumulation of ascitic (weight gain, %) ([8]; number of injection 7): 27.2 ± 1.2%
Mean survival time ([8]; mice inoculated with Erlich adenocarcinoma cells): 9.8 ± 0.8
number of REF cells after UV-irradiation (M ± m) ([9]; 0 hours): 822 ± 11 × 10^3 cells
number of REF cells after UV-irradiation (M ± m) ([9]; 24 hours): 365 ± 14 × 10^3 cells
number of REF cells after UV-irradiation (M ± m) ([9]; 48 hours): 258 ± 33 × 10^3 cells
number of REF cells after UV-irradiation (M ± m) ([9]; 72 hours): 159 ± 24 × 10^3 cells
